# What was measured:
# Type in all cases: cell-based
# [1] = tested on: leukaemic stem cell (LSC) compartment within the KG1a cell line; assay: Immunophenotypic identification of the leukaemic stem cell compartment; details: 72 h; for targeting of LSCs (LSC as percentage of all viable cells left in culture): FIG. 2-4; for preferential targeting of LSCs compared with the parent nucleoside: compound A at 1 mM and above
# Description: KG1a cells were cultured for 72 h in the presence of a wide range of concentrations of each compound assayed. Cells were then harvested and labelled with a cocktail of anti-lineage antibodies (PE-cy7), anti-CD34 (FITC), anti-CD38 (PE) and anti-CD123 (PERCP cy5). The sub-population expressing a LSC phenotype were subsequently identified and were expressed as a percentage of all viable cells left in the culture. The percentages of stem cells remaining were then plotted on a dose-response graph and the effects of the compounds were compared with each other, and with the parent nucleoside.
# The data obtained in these experiments were evaluated using one way ANOVA. All data was confirmed as Gaussian or a Gaussian approximation using the omnibus K2 test. LD50 values were calculated from the non-linear regression and line of best-fit analysis of the sigmoidal dose-response curves. All statistical analyses were performed using Graphpad Prism 6.0 software (Graphpad Software Inc., San Diego, CA).
# CCRF-CEM = assay: CellTiterGlo cell viability assay, initial screening
# Description: (§1) In vitro viability assays were performed to assess the effects of compounds on cell viability in 7 selected cell lines over 72 hr using the CellTiterGlo (CTG, Promega-G7573) assay. The tests were performed in duplicates with treatment of compounds at 9 points, 3.16 folds titration in 96 well plates over ˜72 hr. The compound starting concentrations were […]. Cell viability assay using CellTiterGlo in 96-well plate were performed. The compound treatment was 72 hrs, under standard growth conditions, and in duplicate. Compounds were dissolved to 40 mM with thawed […]. Compounds were serially diluted at 3.16 fold in thawed DMSO, and warmed to 37° C. before being dissolved in media (2 μl+200 μl). After compounds were dissolved in media (media was also warmed to 37° C.). Media containing compounds were warmed to 37° C. in incubator and then compounds in media were added to cell plates (50 μl+50 μl), in duplicates. The compounds final concentrations were from […] to 19.9 nM. All compound solubilities were checked and recorded again, then the plates were transferred to CO2 tissue culture incubator immediately and incubated for 3 days. DMSO final concentration is 0.5%.
# KG-1 = assay: as above
# Description: as §1
# K562 = assay: as above; details: 72 hr, Table II
# Description: as §1
# MCF-7 = assay: as above; details: MCF-7; 72 hr; Table II
# Description: as §1
# HepG2 = assay: as above; details: for M.I. %: maximum percentage inhibition of cell viability: HepG2, 72 hr, Table II
# Description: as §1
# MOLT-4 = assay: as above
# Description: as §1
# HL-60 = assay: as above; details: for IC50: Homo sapiens, HL-60, 72 h, read-out: IC50 (relative IC50)
# Description: as §1
Structure (SMILES),targeting of LSCs (LSC as percentage of all viable cells left in culture) [1],preferential targeting of LSCs compared with the parent nucleoside [1],M.I. %: maximum percentage inhibition of cell viability (K562),M.I. %: maximum percentage inhibition of cell viability (MCF-7),M.I. %: maximum percentage inhibition of cell viability (HepG2),"M.I. %: maximum percentage inhibition of cell viability (CCRF-CEM; CCRF-CEM, 72 hr, Table II)","M.I. %: maximum percentage inhibition of cell viability (KG-1; KG-1, 72 hr, Table II)","M.I. %: maximum percentage inhibition of cell viability (MOLT-4; MOLT-4, 72 hr, Table II)","M.I. %: maximum percentage inhibition of cell viability (HL-60; HL-60, 72 hr, Table II)",further results
C[C@H](NP(=O)(OC[C@@H]1C[C@H](O)[C@H](n2cnc3c(N)nc(F)nc32)O1)Oc1cccc2ccccc12)C(=O)OCc1ccccc1 (stereo partly drawn) [Compound O],able to bring about a reduction in the proportion of LSCs,not significantly different to 2-F-Cordycepin,,,,,,,,
"C[C@H](NP(=O)(N[C@@H](C)C(=O)OCc1ccccc1)OC[C@@H]1CC(O)[C@H](n2cnc3c(N)ncnc32)O1)C(=O)OCc1ccccc1 (stereo in doubt) [Compound J, Benzyl 2-[({[5-(6-amino-9H-purin-9-yl)-4-hydroxyoxolan-2-yl]methoxy}({[1-(benzyloxy)-1-oxopropan-2-yl]amino})phosphoryl)amino]propanoate]",,,97%,97%,55%,,,,,"M.I. %: maximum percentage inhibition of cell viability (CCRF-CEM; human, 72 h): 100%; M.I. %: maximum percentage inhibition of cell viability (KG-1; human, 72 h): 29%; M.I. %: maximum percentage inhibition of cell viability (MOLT-4; human, 72 h): 100%; M.I. %: maximum percentage inhibition of cell viability (HL-60; human, 72 h): 98%"
"C[C@H](NP(=O)(Oc1ccccc1)O[C@@H]1C[C@@H](CO)O[C@H]1n1cnc2c(N)ncnc21)C(=O)OCc1ccccc1 (stereo partly drawn) [G, (2S)-benzyl 2-(((((2R,3R,5S)-2-(6-amino-9H-purin-9-yl)-5-(hydroxymethyl)tetrahydro-furan-3-yl)oxy)(phenoxy)phosphoryl)amino)propanoate]",,,78%,97%,67%,65%,63%,75%,57%,"IC50 (HepG2; Homo sapiens, HepG2, 72 h, read-out: IC50 (relative IC50)): 15 to 100 µM; IC50 (HL-60): 15 to 100 µM"
"C[C@H](NP(=O)(OC[C@@H]1C[C@@H](O)[C@H](n2cnc3c(N)nc(F)nc32)O1)Oc1ccccc1)C(=O)OCc1ccccc1 (mixture of isomers) [P, (2S)-benzyl 2-(((((2S,4R,5R)-5-(6-amino-2-fluoro-9H-purin-9-yl)-4-hydroxytetrahydrofuran-2-yl)methoxy)(phenoxy)phosphoryl)amino)propanoate]",preferential targeting of LSCs,significantly improved when compared with the parental nucleoside,,,,,,,,
"C[C@H](NP(=O)(Oc1cccc2ccccc12)O[C@@H]1C[C@@H](CO)O[C@H]1n1cnc2c(N)ncnc21)C(=O)OCc1ccccc1 (stereo partly drawn) [Compound I, (2S)-benzyl 2-(((((2R,3R,5S)-2-(6-amino-9H-purin-9-yl)-5-(hydroxymethyl)tetrahydro-furan-3-yl)oxy)(naphthalen-1-yloxy)phosphoryl)amino)propanoate]",,,87%,99%,90%,99%,93%,100%,99%,
"CCCCCCOC(=O)[C@H](C)NP(=O)(OC[C@@H]1C[C@@H](O)[C@H](n2cnc3c(N)nc(F)nc32)O1)Oc1ccccc1 (stereo partly drawn) [R, (2S)-hexyl 2-(((((2S,4R,5R)-5-(6-amino-2-fluoro-9H-purin-9-yl)-4-hydroxytetrahydrofuran-2-yl)methoxy)(phenoxy)phosphoryl)amino)propanoate]",preferential targeting of LSCs,significantly improved when compared with the parental nucleoside,,,,,,,,
"CCCCCOC(=O)[C@H](CC(C)C)NP(=O)(OC[C@@H]1C[C@H](O)[C@H](n2cnc3c(N)nc(F)nc32)O1)Oc1cccc2ccccc12 (stereo partly drawn) [Compound Q, 2-Fluoro-3′-deoxyadenosine-5′-O-[1-naphthyhl(1-pentyloxy-L-leucinyl)]phosphate]",preferential targeting of LSCs,significantly improved when compared with the parental nucleoside,,,,,,,,
"C[C@H](NP(=O)(OC[C@@H]1C[C@@H](OP(=O)(N[C@@H](C)C(=O)OCc2ccccc2)Oc2ccccc2)[C@H](n2cnc3c(N)ncnc32)O1)Oc1ccccc1)C(=O)OCc1ccccc1 (stereo partly drawn) [H, Benzyl 2-(((((2S,4R,5R)-5-(6-amino-9H-purin-9-yl)-4-((((1-(benzyloxy)-1-oxopropan-2-yl)amino)(phenoxy)phosphoryl)oxy)tetrahydrofuran-2-yl)methoxy)(phenoxy)phosphoryl)-amino)propanoate]",,,89%,94%,55%,100%,69%,100%,80%,IC50 (HL-60): 15 to 100 µM
